Experimental findings from ChEMBL document CHEMBL1201862, “PubChem BioAssay data set” (2004) are described below.

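Dose response: 5 concentrations. Exposure: 48 h. Format: 96-well plates. Endpoint: linear interpolation; highest concentration if not reached. GI50: concentration for 50% inhibition of growth.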 Active and inactive are the calls of the source. Rule as the data show it: active = GI50 up to about 1.1 µM and inactive = higher.

Test in all cases: NCI-60 cell line screen, 48 h
The subject of test [1] is BT-549.
In test [2] the test system is COLO 205.
Test [3] deals with DU-145.
Test [4] relates to HCT-116.
The subject of test [5] is HL-60.
The test system of test [6] is HOP-92.
Test [7] has as its system K562.
The test system of test [8] is LOX IMVI.
The test system of test [9] is MDA-MB-231.
In test [10] the test system is MOLT-4.
For test [11], the system named is NCI-H226.
Test [12] concerns NCI-H23.
In test [13] the test system is OVCAR-3.
For test [14], the system named is OVCAR-8.
For test [15], the system named is RPMI-8226.
Test [16] deals with SK-MEL-5.
Test [17] relates to SNB-19.
Test [18] deals with SNB-75.
For test [19], the system named is SW-620.
Test [20] relates to UACC-62.

On to `Fc1cc(C2=C[C@H](c3ccc(Cl)cc3)NC(=S)N2)c(Cl)cc1Cl`, for which the GI50 in [1] was > 100 µM (inactive); in test [2], 47 µM (inactive); in test [3], 62.8 µM (inactive); in test [4], 35.8 µM (inactive); in test [5] it was 20.6 µM (inactive); in test [6], 27.2 µM (inactive). Further, the GI50 is 5.62 µM (inactive) in [7]; 48.6 µM (inactive) in test [8]; 23.7 µM (inactive) in test [9]; 15.6 µM (inactive) in test [10]; 88.7 µM (inactive) in [11]; 63.8 µM (inactive) in [12]. The GI50 is 33.1 µM (inactive) in [13]; 39.9 µM (inactive) in test [14]; 14.9 µM (inactive) in test [15]; 11.6 µM (inactive) in test [16]; 76.7 µM (inactive) in test [17]; 37.6 µM (inactive) in [18]. Besides, the figures for the GI50 in test [19] and in test [20] were 70.6 µM (inactive) and 57 µM (inactive), respectively.

As to `O=C1CSC(c2cccs2)N1c1nc2cc3sc(N4C(=O)CSC4c4cccs4)nc3cc2s1` (stereo not given), the GI50 in [1] was > 50 µM (inactive); in test [2] it was 1.21 µM (inactive); in [3], > 50 µM (inactive); in test [4], 38.4 µM (inactive); in test [5], > 50 µM (inactive); in [6], > 50 µM (inactive). The GI50 in test [7] is 34.5 µM (inactive); in test [8] it was 29.5 µM (inactive); in test [9], > 50 µM (inactive); in test [10] it was 6.4 µM (inactive); in test [11], 6.38 µM (inactive); in [12], 28.8 µM (inactive). In addition, the GI50 in test [13] is > 50 µM (inactive); in test [14], > 50 µM (inactive); in test [15], > 50 µM (inactive); in test [16] it was 22.5 µM (inactive); in [17], > 50 µM (inactive); in [18], > 50 µM (inactive). Further, the GI50 in test [19] was 16.2 µM (inactive); in [20], > 50 µM (inactive).

For `O=C(Nc1cccc(-c2cn3ccccc3n2)c1)c1ccncc1`, the GI50 in test [1] is 21.7 µM (inactive); in test [2], 31.3 µM (inactive); in test [3], 49.4 µM (inactive); in [4], 33.1 µM (inactive); in test [5] it was 20.1 µM (inactive); in test [6], 98.2 µM (inactive). Besides, the GI50 in [7] is 24.6 µM (inactive); in test [8], 38.3 µM (inactive); in test [9], 32 µM (inactive); in [10] it was 21.7 µM (inactive); in [11], 56.5 µM (inactive); in [12] it was 23.6 µM (inactive). Also, the GI50 in test [13] was 35.1 µM (inactive); in [14], 34 µM (inactive); in [15], 17.1 µM (inactive); in test [16] it was 24.3 µM (inactive); in test [17], 99.3 µM (inactive); in [18], 46.1 µM (inactive). Besides, the results for the GI50 in [19] and in [20] were 64.9 µM (inactive) and 20.9 µM (inactive), respectively.

`O=c1nc(N2CCNCC2)oc2cc(Cl)oc(=O)c12`: the GI50 in [1] was 0.716 µM (active); in test [2] it was 2.9 µM (inactive); in [3], 5.5 µM (inactive); in [4], 2.43 µM (inactive); in test [5] it was 1.9 µM (inactive); in [6] it was 3.94 µM (inactive). The GI50 in test [7] was 2.55 µM (inactive); in test [8], 2.06 µM (inactive); in [9] it was 12.1 µM (inactive); in [10], 1.76 µM (inactive); in [11], 15.4 µM (inactive); in [12] it was 7.24 µM (inactive). The GI50 in test [13] was 4.06 µM (inactive); in [14], 2 µM (inactive); in test [15] it was 1.67 µM (inactive); in [16], 3.14 µM (inactive); in test [17] it was 15.4 µM (inactive); in [18], 3.7 µM (inactive). In addition, the GI50 in test [19] is 2.26 µM (inactive); in test [20], 7.67 µM (inactive).

As to `C=C[C@@]1(C)CC(=O)[C@]2(O)[C@@]3(C)[C@@H](O)CCC(C)(C)[C@@H]3[C@H](O)[C@@H](OC(C)=O)[C@@]2(C)O1`, the GI50 in test [1] was > 100 µM (inactive); in test [2] it was > 100 µM (inactive); in test [3], > 100 µM (inactive); in [4] it was > 100 µM (inactive); in test [5] it was 48.6 µM (inactive); in test [6] it was > 100 µM (inactive). For the same compound, the GI50 in test [7] is > 100 µM (inactive); in test [8] it was > 100 µM (inactive); in [9], 6.18 µM (inactive); in test [10] it was 30.2 µM (inactive); in [11], > 100 µM (inactive); in test [12] it was > 100 µM (inactive). Also, the GI50 is > 100 µM (inactive) in [13]; > 100 µM (inactive) in test [14]; 18.7 µM (inactive) in test [15]; > 100 µM (inactive) in test [16]; > 100 µM (inactive) in test [17]; > 100 µM (inactive) in test [18]. The GI50 in test [19] and in [20] was > 100 µM (inactive) in each case.

As for `CCOP(=O)(OCC)C(Nc1ccc(F)cc1)c1cccc([N+](=O)[O-])c1` (stereo not given), the GI50 in test [1] is 89.3 µM (inactive); in [2] it was 70.5 µM (inactive); in test [3], > 100 µM (inactive); in test [4], 46.8 µM (inactive); in [5], 41.3 µM (inactive); in test [6] it was 37.9 µM (inactive). Further, the GI50 is 38.9 µM (inactive) in [7]; > 100 µM (inactive) in [8]; 71.9 µM (inactive) in [9]; 37.2 µM (inactive) in test [10]; > 100 µM (inactive) in test [11]; > 100 µM (inactive) in test [12]. The GI50 in test [13] was > 100 µM (inactive); in test [14], 97.9 µM (inactive); in test [15] it was 76.9 µM (inactive); in test [16], 83.9 µM (inactive); in test [17] it was > 100 µM (inactive); in [18], > 100 µM (inactive). Besides, the GI50 in [19] was > 100 µM (inactive); in test [20], 54.8 µM (inactive).

As to `CC(C)CC(N)C(=O)O` (stereo not given), the GI50 in [1], in test [2], in test [3], in test [4], in test [5] and in [6] was > 100 µM (inactive) throughout. The GI50 in test [7], in test [8], in [9], in test [10], in test [11] and in [12] was > 100 µM (inactive) throughout. Also, the GI50 in test [13], in test [14], in test [15], in [16], in test [17] and in test [18] was > 100 µM (inactive) each time. For the same compound, the GI50 in [19] and in [20] was > 100 µM (inactive) each time.
